# Experiments:
# dog NPC1L1 = dog NPC1L1 (Canis lupus familiaris, UniProt A0A8I3RZG1); assay: [3H]AS binding to dog NPC1L1 transiently expressed in TsA201 cells; conditions: for IC50: 4.65 nM [3H]AS, 4 h, 37° C., read-out: IC50 inhibition of [3H]AS binding; for Ki: dog NPC1L1/TsA201 cells, read-out: Ki (competition with [3H]AS)
# Procedure: (§1) rNPC1L1/HEK293 and TsA201 cells were seeded at a density of 10,000 cells per well in 96-well poly-D-lysine coated plates and cells were allowed to attach for approximately 18 h at 37° C. TsA201 cells were subsequently transfected with dog NPC1L1/pcDNA5/FRT according to the manufacturer's instructions (Roche) and incubated for 3 days at 37° C. MDCKII-derived, LLC-PKI, HepG2, or CaCo-2 cells were seeded at a density of 25,000 cells per well in 96-well tissue culture treated plates, and cells were allowed to attach and differentiate for approximately 72 h at 37° C., except for CaCo-2 cells where differentiation took approximately 14 days at 37° C. […] Duplicate samples were averaged for each experimental point. […] Dissociation kinetics were determined by addition of 100 μM EZE-gluc, and incubating for different periods of time. Nonspecific binding was defined in the presence of 100 μM EZE-gluc. At the end of the incubation period, cells were washed twice with 200 μl of pre-warmed DMEM to separate bound from free ligand, 1% SDS was added to the wells followed by 5 ml of Scintillant, and radioactivity associated with cells was determined using a β-counter. […] Thereafter, plates were placed on ice and cells were washed twice with ice-cold PBS, followed by ice-cold acid wash with DMEM, pH 3.5, for 1, 5 or 15 minutes. […] For Transwell experiments, MDCKII cells were seeded at 200,000 cells/well in a 24-well plate and incubated for 3 days at 37° C. […] Thereafter, both apical and basolateral compartments were washed three times with PBS, and the Transwell filter was cut out and its associated radioactivity determined using afi-counter. Data from saturation, competition and ligand dissociation experiments were analyzed as described in the literature; see, Priest, et al., 2004 Biochemistry 43:9866-9876; Knaus et al., 1995 Biochemistry 34:13627-13634. The association rate, k1, was determined by employing the pseudo-first-order rate equation k1=kobs([LR]e/[L][LR]max)) where [LR]max is the concentration of the complex at equilibrium, [L] is the concentration of ligand, [LR]max is the total receptor concentration, kobs is the slope of the pseudo-first order plot, ln([LR]e/([LR]e−[LR]t)) versus time, and [LR]t is the receptor-ligand complex at one given time point t.
# To further validate this statement, cloned dog NPC1L1 was transiently expressed in TsA201 cells and binding of [^3]AS to these cells was then characterized (FIG. 5 and Table 1).
# human NPC1L1 = biological target: T1, human NPC1L1 (Homo sapiens, UniProt Q9UHC9); assay: [3H]AS binding to hNPC1L1/MDCKII-Flp cells; conditions: FIG. 7D, read-out: Ki inhibition of [3H]AS binding
# T1 construct: expressed in transfected cells
# T1 sequence (Q9UHC9 22-1359): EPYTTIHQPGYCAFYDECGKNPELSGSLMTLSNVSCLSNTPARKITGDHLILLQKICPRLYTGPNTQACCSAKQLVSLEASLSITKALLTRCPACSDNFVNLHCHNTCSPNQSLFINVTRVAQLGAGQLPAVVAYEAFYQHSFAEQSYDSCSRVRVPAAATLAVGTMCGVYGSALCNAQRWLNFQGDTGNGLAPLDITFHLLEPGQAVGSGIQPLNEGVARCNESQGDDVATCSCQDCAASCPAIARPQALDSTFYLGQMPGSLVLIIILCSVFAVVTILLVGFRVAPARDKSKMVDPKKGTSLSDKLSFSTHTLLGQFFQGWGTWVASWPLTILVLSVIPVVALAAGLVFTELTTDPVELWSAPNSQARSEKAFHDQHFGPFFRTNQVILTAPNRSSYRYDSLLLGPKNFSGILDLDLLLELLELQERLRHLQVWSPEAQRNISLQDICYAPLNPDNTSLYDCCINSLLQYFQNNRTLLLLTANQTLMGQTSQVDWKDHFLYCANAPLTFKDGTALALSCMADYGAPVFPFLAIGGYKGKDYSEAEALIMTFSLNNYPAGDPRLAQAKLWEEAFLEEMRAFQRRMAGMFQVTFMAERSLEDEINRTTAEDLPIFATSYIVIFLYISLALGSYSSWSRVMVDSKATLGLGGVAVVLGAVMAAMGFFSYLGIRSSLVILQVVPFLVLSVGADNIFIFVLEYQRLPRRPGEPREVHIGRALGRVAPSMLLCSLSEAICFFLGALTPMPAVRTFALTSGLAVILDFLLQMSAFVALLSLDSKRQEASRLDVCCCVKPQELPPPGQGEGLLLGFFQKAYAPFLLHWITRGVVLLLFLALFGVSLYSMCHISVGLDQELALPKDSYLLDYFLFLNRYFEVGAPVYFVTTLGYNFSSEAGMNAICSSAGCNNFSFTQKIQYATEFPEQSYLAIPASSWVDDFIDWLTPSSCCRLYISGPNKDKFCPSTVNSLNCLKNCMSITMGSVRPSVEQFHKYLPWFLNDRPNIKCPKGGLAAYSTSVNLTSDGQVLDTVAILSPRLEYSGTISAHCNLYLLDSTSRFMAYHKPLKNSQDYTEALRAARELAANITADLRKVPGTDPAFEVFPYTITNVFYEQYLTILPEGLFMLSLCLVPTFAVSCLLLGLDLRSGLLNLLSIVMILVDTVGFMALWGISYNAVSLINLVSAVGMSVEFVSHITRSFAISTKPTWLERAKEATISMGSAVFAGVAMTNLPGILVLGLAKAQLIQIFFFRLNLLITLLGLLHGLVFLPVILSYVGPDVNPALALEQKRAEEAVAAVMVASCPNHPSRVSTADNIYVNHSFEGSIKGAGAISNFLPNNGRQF
# Procedure: as §1
# To validate MDCKII cells as an appropriate surrogate system for monitoring NPC1L1-dependent processes, we evaluated their ability to perform EZE-sensitive cholesterol flux using a similar protocol to that recently reported. This assay makes use of the ability of βmCD to deplete membrane-bound cholesterol. […]
# To further characterize the [^3H] cholesterol influx process into MDCK cells, the potency of EZE-like compound PS for inhibiting [^3H] cholesterol uptake was determined.
# [1] = biological target: dog NPC1L1 endogenously expressed in MDCKII cells (Canis lupus familiaris, UniProt A0A8I3RZG1); assay: [3H]AS binding to MDCKII cells (saturation, kinetics, competition, acid wash); conditions: for IC50: 5.49 nM [3H]AS, 4 h, 37° C., read-out: IC50 inhibition of [3H]AS binding; for Ki: MDCKII cells
# Procedure: as §1
# dog NPC1L1, sequence (A0A8I3RZG1 entry or part of it): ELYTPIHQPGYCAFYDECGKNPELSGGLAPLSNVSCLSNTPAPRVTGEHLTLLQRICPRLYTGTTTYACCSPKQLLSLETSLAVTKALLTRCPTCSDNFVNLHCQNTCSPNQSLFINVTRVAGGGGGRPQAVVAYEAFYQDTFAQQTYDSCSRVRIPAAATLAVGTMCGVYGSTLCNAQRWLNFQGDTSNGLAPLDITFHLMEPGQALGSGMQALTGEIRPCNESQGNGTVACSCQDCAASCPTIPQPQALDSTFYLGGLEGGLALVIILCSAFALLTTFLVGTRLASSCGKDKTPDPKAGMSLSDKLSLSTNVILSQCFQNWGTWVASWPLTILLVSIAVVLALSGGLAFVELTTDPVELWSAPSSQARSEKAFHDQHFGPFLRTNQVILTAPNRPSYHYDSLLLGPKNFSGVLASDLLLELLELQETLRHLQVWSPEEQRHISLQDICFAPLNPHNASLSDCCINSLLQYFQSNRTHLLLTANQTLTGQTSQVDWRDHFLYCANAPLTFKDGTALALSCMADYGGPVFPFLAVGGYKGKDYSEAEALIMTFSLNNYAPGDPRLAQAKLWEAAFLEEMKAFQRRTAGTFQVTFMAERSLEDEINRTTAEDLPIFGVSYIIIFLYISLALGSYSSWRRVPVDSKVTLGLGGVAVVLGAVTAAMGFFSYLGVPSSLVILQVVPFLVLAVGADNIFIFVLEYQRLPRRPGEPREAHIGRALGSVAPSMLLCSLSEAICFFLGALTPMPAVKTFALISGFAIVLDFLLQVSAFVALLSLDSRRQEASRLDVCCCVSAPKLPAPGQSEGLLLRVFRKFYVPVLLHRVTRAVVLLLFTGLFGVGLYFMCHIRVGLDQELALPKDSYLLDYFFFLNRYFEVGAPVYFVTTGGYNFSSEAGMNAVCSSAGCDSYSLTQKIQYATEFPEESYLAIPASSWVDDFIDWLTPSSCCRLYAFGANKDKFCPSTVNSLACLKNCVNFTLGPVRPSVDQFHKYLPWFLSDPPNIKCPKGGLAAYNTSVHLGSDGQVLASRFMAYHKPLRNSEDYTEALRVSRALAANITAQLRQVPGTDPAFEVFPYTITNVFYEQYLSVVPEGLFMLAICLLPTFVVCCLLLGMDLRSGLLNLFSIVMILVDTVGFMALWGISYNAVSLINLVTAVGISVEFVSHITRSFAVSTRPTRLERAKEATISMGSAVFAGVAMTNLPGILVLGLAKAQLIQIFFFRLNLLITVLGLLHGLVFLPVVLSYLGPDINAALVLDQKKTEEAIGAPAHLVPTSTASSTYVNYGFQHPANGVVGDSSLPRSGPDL
# dog NPC1L1 endogenously expressed in MDCKII cells, sequence (A0A8I3RZG1 entry or part of it): as above
SMILES,IC50 (dog NPC1L1),Ki (dog NPC1L1),Ki (human NPC1L1),IC50 [1],Ki [1],fold weaker than AS and PS as inhibitor of [3H]AS binding ([1]; MDCK cells)
"O=C1[C@H](CC[C@H](O)c2ccc(F)cc2)[C@@H](c2ccc(O)cc2)N1c1ccc(F)cc1 [EZE, Ezetimibe]",111 nM,21.5 ± 7.56 nM,1300 nM,126 nM,14 ± 4.11 nM,–
"COC(=O)[C@H]1O[C@@H](Oc2ccc([C@@H]3[C@@H](CC[C@H](O)c4ccc(F)cc4)C(=O)N3c3ccc(C#CCNS(C)(=O)=O)cc3)cc2)[C@H](O)[C@@H](O)[C@@H]1O [PS, 4-[(2S,3R)-3-[(3S)-3-(4-fluorophenyl)-3-hydroxypropyl]-1-(4-{3-[(methylsulfonyl)amino]prop-1-yn-1-yl}phenyl)-4-oxoazetidin-2-yl]phenyl methyl-β-D-glucopyranosiduronate]",3.73 nM,0.97 ± 0.08 nM,5 nM,3.02 nM,0.33 ± 0.05 nM,–
"O=C(O)[C@H]1O[C@@H](Oc2ccc([C@@H]3[C@@H](CC[C@H](O)c4ccc(F)cc4)C(=O)N3c3ccc(F)cc3)cc2)[C@H](O)[C@@H](O)[C@@H]1O [EZE-gluc, ezetimibe glucuronide]",27 nM,5.51 ± 1.52 nM,209 nM,24 nM,3.51 ± 0.89 nM,~10 fold
